ChEMBL document CHEMBL3885861, “Open TG-GATES”

Organism: Rattus norvegicus
Assay: Open TG-GATES - Regimen: Single
Assay type: toxicity, organism-based, Sprague-Dawley
Parameters: regimen Single, gender Male, age 6 weeks
Conditions: in vivo, iv, 60 mg/kg, route intravenous injection, dose level High; for APTT / Bas / Eos / Fbg / Hb / Ht / Lym / MCH / MCHC / MCV / Mono / Neu / PT / Plat / RBC / Ret / WBC: tissue Blood; for KIDNEY_L / KIDNEY_R / KIDNEY_TOTAL: tissue Kidney; for LIVER: tissue Liver; for A/G / ALP / ALT / AST / BUN / CRE / Ca / Cl / DBIL / GLC / IP / K / LDH / Na / PL / RALB / TBIL / TC / TG / TP / gamma-GTP: tissue Plasma

`NCCBr` [BROMOETHANAMINE] gave a TERMINAL_BW (3 h) of 212.4 g, an APTT (3 h) of 23.5 s and a Bas (3 h) of 0%. It also gave an Eos (3 h) of 0.6%, a Fbg (3 h) of 312.8 mg/dL and a Hb (3 h) of 14.4 g/dL. For the same molecule, the Ht (3 h) was 41.9%, the Lym (3 h) was 70.8% and the MCH (3 h) was 21.8 pg. The MCHC (3 h) was 34.5%, the MCV (3 h) was 63.3 fL and the Mono (3 h) was 2.4%. The Neu (3 h) was 25.4%, the PT (3 h) was 16.1 s and the Plat (3 h) was 131.5 x10_4/uL. The RBC (3 h) was 661.2 x10_4/ul, the Ret (3 h) was 6% and the WBC (3 h) was 39.6 x10_2/uL. It also gave a KIDNEY_L (3 h) of 0.9 g, a KIDNEY_R (3 h) of 1 g and a KIDNEY_TOTAL (3 h) of 1.9 g. The LIVER (3 h) was 9.3 g, the A/G (3 h) was 1.2 and the ALP (3 h) was 1494.4 IU/L. For the same molecule, the ALT (3 h) was 47 IU/L, the AST (3 h) was 56.8 IU/L and the BUN (3 h) was 13.4 mg/dL. The CRE (3 h) was 0.1 mg/dL, the Ca (3 h) was 10.7 mg/dL and the Cl (3 h) was 106.8 meq/L. For the same molecule, the DBIL (3 h) was 0.002 mg/dL, the GLC (3 h) was 166.2 mg/dL and the IP (3 h) was 10.5 mg/dL. It also gave a K (3 h) of 4.1 meq/L, an LDH (3 h) of 321.8 IU/L and a Na (3 h) of 143.4 meq/L. For the same molecule, the PL (3 h) was 141 mg/dL, the RALB (3 h) was 3.1 g/dL and the TBIL (3 h) was 0.014 mg/dL. For the same molecule, the TC (3 h) was 85.4 mg/dL, the TG (3 h) was 46.4 mg/dL and the TP (3 h) was 5.9 g/dL. It also gave a gamma-GTP (3 h) of 1 IU/L, a TERMINAL_BW (6 h) of 208.7 g and an APTT (6 h) of 23.1 s. For the same molecule, the Bas (6 h) was 0%, the Eos (6 h) was 0.6% and the Fbg (6 h) was 325.6 mg/dL. It also gave a Hb (6 h) of 14.2 g/dL, a Ht (6 h) of 40.9% and a Lym (6 h) of 74.2%. For the same molecule, the MCH (6 h) was 20.9 pg, the MCHC (6 h) was 34.8% and the MCV (6 h) was 60.1 fL. For the same molecule, the Mono (6 h) was 1.6%, the Neu (6 h) was 23.2% and the PT (6 h) was 16.1 s. The Plat (6 h) was 136 x10_4/uL, the RBC (6 h) was 681 x10_4/ul and the Ret (6 h) was 5.4%. The WBC (6 h) was 35.9 x10_2/uL, the KIDNEY_L (6 h) was 1 g and the KIDNEY_R (6 h) was 1 g. It also gave a KIDNEY_TOTAL (6 h) of 2 g, an LIVER (6 h) of 9.1 g and an A/G (6 h) of 1.2. For the same molecule, the ALP (6 h) was 1401.4 IU/L, the ALT (6 h) was 39.2 IU/L and the AST (6 h) was 54.2 IU/L. For the same molecule, the BUN (6 h) was 15.6 mg/dL, the CRE (6 h) was 0.1 mg/dL and the Ca (6 h) was 10.6 mg/dL. For the same molecule, the Cl (6 h) was 101.4 meq/L, the DBIL (6 h) was 0.004 mg/dL and the GLC (6 h) was 201 mg/dL. The IP (6 h) was 10.2 mg/dL, the K (6 h) was 4 meq/L and the LDH (6 h) was 362.4 IU/L. For the same molecule, the Na (6 h) was 142 meq/L, the PL (6 h) was 133 mg/dL and the RALB (6 h) was 3.2 g/dL. The TBIL (6 h) was 0.01 mg/dL, the TC (6 h) was 80.8 mg/dL and the TG (6 h) was 27.6 mg/dL. For the same molecule, the TP (6 h) was 6 g/dL, the gamma-GTP (6 h) was 1.2 IU/L and the TERMINAL_BW (9 h) was 202.6 g. For the same molecule, the APTT (9 h) was 24.1 s, the Bas (9 h) was 0% and the Eos (9 h) was 0.2%. It also gave a Fbg (9 h) of 341.6 mg/dL, a Hb (9 h) of 14.9 g/dL and a Ht (9 h) of 42.6%. The Lym (9 h) was 71%, the MCH (9 h) was 21.5 pg and the MCHC (9 h) was 35%. The MCV (9 h) was 61.4 fL, the Mono (9 h) was 3.2% and the Neu (9 h) was 24.2%. The PT (9 h) was 15.8 s, the Plat (9 h) was 135.3 x10_4/uL and the RBC (9 h) was 695 x10_4/ul. It also gave a Ret (9 h) of 5.2%, a WBC (9 h) of 40.1 x10_2/uL and a KIDNEY_L (9 h) of 1 g. For the same molecule, the KIDNEY_R (9 h) was 1 g, the KIDNEY_TOTAL (9 h) was 2 g and the LIVER (9 h) was 8.8 g. It also gave an A/G (9 h) of 1.2, an ALP (9 h) of 1484.2 IU/L and an ALT (9 h) of 34.4 IU/L. It also gave an AST (9 h) of 49.6 IU/L, a BUN (9 h) of 19.8 mg/dL and a CRE (9 h) of 0.2 mg/dL. It also gave a Ca (9 h) of 10.7 mg/dL, a Cl (9 h) of 101.4 meq/L and a DBIL (9 h) of 0 mg/dL. The GLC (9 h) was 223.8 mg/dL, the IP (9 h) was 9.1 mg/dL and the K (9 h) was 3.6 meq/L. It also gave an LDH (9 h) of 316.2 IU/L, a Na (9 h) of 142 meq/L and a PL (9 h) of 154.6 mg/dL. The RALB (9 h) was 3.4 g/dL, the TBIL (9 h) was 0.016 mg/dL and the TC (9 h) was 86.8 mg/dL. For the same molecule, the TG (9 h) was 84.2 mg/dL, the TP (9 h) was 6.2 g/dL and the gamma-GTP (9 h) was 1.4 IU/L. The TERMINAL_BW (24 h) was 206.5 g, the APTT (24 h) was 24.1 s and the Bas (24 h) was 0%. It also gave an Eos (24 h) of 0.6%, a Fbg (24 h) of 354.4 mg/dL and a Hb (24 h) of 14.6 g/dL. For the same molecule, the Ht (24 h) was 42.3%, the Lym (24 h) was 81.6% and the MCH (24 h) was 21 pg. It also gave an MCHC (24 h) of 34.6%, an MCV (24 h) of 60.9 fL and a Mono (24 h) of 2.6%. For the same molecule, the Neu (24 h) was 13.8%, the PT (24 h) was 16.1 s and the Plat (24 h) was 130.9 x10_4/uL. For the same molecule, the RBC (24 h) was 695 x10_4/ul, the Ret (24 h) was 4% and the WBC (24 h) was 90.8 x10_2/uL. It also gave a KIDNEY_L (24 h) of 1 g, a KIDNEY_R (24 h) of 1 g and a KIDNEY_TOTAL (24 h) of 1.9 g. The LIVER (24 h) was 8.1 g, the A/G (24 h) was 1.2 and the ALP (24 h) was 1421.6 IU/L. It also gave an ALT (24 h) of 35.4 IU/L, an AST (24 h) of 61.4 IU/L and a BUN (24 h) of 18.4 mg/dL. The CRE (24 h) was 0.2 mg/dL, the Ca (24 h) was 10.7 mg/dL and the Cl (24 h) was 109.4 meq/L. The DBIL (24 h) was 0.004 mg/dL, the GLC (24 h) was 174 mg/dL and the IP (24 h) was 7.9 mg/dL. The K (24 h) was 4.2 meq/L, the LDH (24 h) was 278.8 IU/L and the Na (24 h) was 142.8 meq/L. For the same molecule, the PL (24 h) was 141.4 mg/dL, the RALB (24 h) was 3.1 g/dL and the TBIL (24 h) was 0.028 mg/dL. It also gave a TC (24 h) of 91.4 mg/dL, a TG (24 h) of 36.4 mg/dL and a TP (24 h) of 5.8 g/dL. The gamma-GTP (24 h) was 1.6 IU/L.
